Measured values as given in US10214526B2, “Substituted pyrazolo[1,5-a]-pyridine-3-carboxamides and use thereof” (Bayer Pharma Aktiengesellschaft, priority 2015, dated 2019).
Structures can show the parent of a compound that is named as a salt.

System: recombinant guanylate cyclase reporter cell line
Test: Effect on a recombinant guanylate cyclase reporter cell line
Format: cell-based
Conditions: in some cases mean values from individual determinations
Procedure: B-2. Effect on a Recombinant Guanylate Cyclase Reporter Cell Line
The cellular activity of the compounds according to the invention is determined using a recombinant guanylate cyclase reporter cell line, as described in F. Wunder et al., Anal. Biochem. 339, 104-112 (2005).
Representative MEC values (MEC=minimum effective concentration) for the compounds of the invention are shown in the table below (in some cases as mean values from individual determinations): […]

`Cc1cc(OCc2c(F)cccc2F)n2nc(C)c(C(=O)NCC(C)(N)CC[Si](C)(C)C)c2c1` (single isomer, unassigned; enantiomer b) [Example 5, ent-N-[2-Amino-2-methyl-4-(trimethylsilyl)butyl]-7-[(2,6-difluorobenzyl)oxy]-2,5-dimethylpyrazolo[1,5-a]pyridine-3-carboxamide (Enantiomer B)] was tested, and the “MEC (minimum effective concentration)” value was 0.30 µM.

In the case of `Cc1cc(OCc2c(F)cccc2F)n2nc(C)c(C(=O)NC(C)(CO)c3nnn(C(F)F)n3)c2c1` (racemic) [Example 2, rac-7-[(2,6-Difluorobenzyl)oxy]-N-{2-[2-(difluoromethyl)-2H-tetrazol-5-yl]-1-hydroxypropan-2-yl}-2,5-dimethylpyrazolo[1,5-a]pyridine-3-carboxamide], the “MEC (minimum effective concentration)” value was 0.10 µM.

In the case of `[2H]C([2H])([2H])CC(C)(N)CNC(=O)c1c(C)nn2c(OCc3c(F)cccc3F)cc(C)cc12` (single isomer, unassigned; enantiomer a) [Example 3, ent-N-[2-Amino-2-methyl(4,4,4,4-^2H3)butyl]-7-[(2,6-difluorobenzyl)oxy]-2,5-dimethylpyrazolo[1,5-a]pyridine-3-carboxamide (Enantiomer A)], the “MEC (minimum effective concentration)” value was 0.30 µM.

`Cc1cc(OCc2c(F)cccc2F)n2nc(C)c(C(=O)NCC(C)(N)CC[Si](C)(C)C)c2c1` (single isomer, unassigned; enantiomer a) [Example 4, ent-N-[2-Amino-2-methyl-4-(trimethylsilyl)butyl]-7-[(2,6-difluorobenzyl)oxy]-2,5-dimethylpyrazolo[1,5-a]pyridine-3-carboxamide (Enantiomer A)] was tested, and the “MEC (minimum effective concentration)” value was 0.53 µM.

For `Cc1cc(OCc2c(F)cccc2F)n2nc(C)c(C(=O)N[C@@](C)(CO)c3nnc(C)s3)c2c1` [Example 1, 7-[(2,6-Difluorobenzyl)oxy]-N-[(2S)-1-hydroxy-2-(5-methyl-1,3,4-thiadiazol-2-yl)propan-2-yl]-2,5-dimethylpyrazolo[1,5-a]pyridine-3-carboxamide trifluoroacetate], the “MEC (minimum effective concentration)” value was 0.20 µM.
